Several values for one entry are separate records, joined by “and”; a condition that tells them apart may be missing. Equal entries are not always repeated.
Legend:
[1] = Molar enthalpy of transition or fusion; settings: Crystal; Adiabatic calorimetry
[2] = for vapor or sublimation pressure: Liquid, Ebulliometric method (Recirculating still)
[3] = molar heat capacity at saturation pressure

c1cnc2c(c1)ccc1cccnc12 [1,10-phenanthroline]
Settings	Molar enthalpy of transition or fusion [kcal/mol]
[1]	3.705

[2]
Settings	vapor or sublimation pressure
523.28 K	2 kPa and 2.001 kPa
531.9 K	2.668 kPa
554.04 K	5.325 kPa
568.22 K	8.008 kPa
578.69 K	10.65 kPa
587.24 K	13.33 kPa
595.98 K	16.64 kPa
603.36 K	19.95 kPa

Settings	Triple point temperature, Crystal [K]	molar heat capacity, 460 K [J/K/mol]	molar heat capacity, 480 K [J/K/mol]	molar heat capacity, 500 K [J/K/mol]	molar heat capacity, 520 K [J/K/mol]	molar heat capacity, 540 K [J/K/mol]	molar heat capacity, 560 K [J/K/mol]	molar heat capacity, 580 K [J/K/mol]	molar heat capacity, 600 K [J/K/mol]
[2], Adiabatic calorimetry	391.71	–	–	–	–	–	–	–	–
[3], Liquid	–	337.52	346.29	355	363.5	371.9	380.1	388.2	396

molar heat capacity [J/K/mol], [3], Vacuum adiabatic calorimetry
Settings	Crystal	Liquid
5 K	1.26	–
5.659 K	1.78	–
6.394 K	2.35	–
7.405 K	3.18	–
8.419 K	4.13	–
9.46 K	5.19	–
10 K	5.74	–
10.55 K	6.31	–
11.75 K	7.62	–
13.08 K	9.121	–
14.53 K	10.68	–
16.13 K	12.55	–
17.88 K	14.51	–
19.8 K	16.6	–
20 K	16.82	–
21.93 K	18.87	–
24.3 K	21.41	–
26.92 K	24.1	–
29.85 K	26.95	–
30 K	27.1	–
33.1 K	29.99	–
36.75 K	33.23	–
40 K	35.93	–
40.82 K	36.58	–
45.34 K	40.14	–
50 K	43.64	–
50.36 K	43.96	–
55.93 K	47.63	–
57.69 K	48.9	–
60 K	50.34	–
60.42 K	50.6	–
63.28 K	52.36	–
66.47 K	54.41	–
69.78 K	56.39	–
70 K	56.51	–
73.24 K	58.45	–
76.94 K	60.52	–
80 K	62.29	–
80.6 K	62.63	–
84.91 K	65	–
88.8 K	67.21	–
90 K	67.87	–
97.84 K	72.09	–
100 K	73.23	–
100.26 K	73.38	–
109.98 K	78.65	–
119.96 K	84.22	–
120 K	84.24	–
131.01 K	90.44	–
140 K	95.58	–
143.07 K	97.35	–
155.1 K	104.48	–
160 K	107.41	–
167.1 K	111.7	–
179.08 K	119.1	–
180 K	119.68	–
191.08 K	126.69	–
200 K	132.42	–
203.14 K	134.46	–
215.25 K	142.45	–
220 K	145.57	–
227.38 K	150.47	–
239.55 K	158.67	–
240 K	158.97	–
251.77 K	167.01	–
260 K	172.69	–
264.02 K	175.49	–
276.3 K	183.86	–
280 K	186.36	–
288.6 K	192.35	–
289.46 K	192.8	–
298.15 K	198.74	–
300 K	200	–
300.24 K	200.19	–
312.29 K	208.49	–
320 K	213.76	–
324.53 K	216.87	–
336.89 K	225.26	–
336.98 K	225.23	–
340 K	227.24	–
348.97 K	233.42	–
349.32 K	233.65	–
360 K	240.63	–
361.05 K	241.49	–
373.19 K	249.78	–
375.19 K	–	297.88
380 K	253.68	300.22
381.3 K	256.64	–
382.84 K	–	301.57
383.75 K	260.04	–
391.52 K	–	305.71
391.71 K	261.46	305.81
397.93 K	–	308.79
400 K	–	309.76
400.3 K	–	309.93
402.69 K	–	311.03
404.9 K	–	312.06
413.55 K	–	316.13
416.42 K	–	317.49
420 K	–	319.14
429.03 K	–	323.3
439.59 K	–	328.19
440 K	–	328.39
